Reference: US20230085307A1, “PYRIDAZINONE COMPOUND AND HERBICIDE” (NISSAN CHEMICAL CORPORATION, priority 2019, published 2023)

Experiments:
persian speedwell = assay: Test Example 4: herbicidal effect by soil treatment (Table 19, symbol R); format: in vivo, Persian speedwell (Veronica persica); details: amount of applied herbicide 320 g/ha
Procedure, shortened: (§1)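 Soil-surface application: an emulsion agent diluted with water to the predetermined dose is sprayed uniformly over seeds lying under roughly 1.5 cm of sterilized diluvial soil. Boxes stay in a greenhouse at 25° C. to 30° C. Three weeks later, each species is graded on previously defined criteria.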

oval-leafed pondweed [1] = assay: Test Example 1: herbicidal activity, application before weed generation under submerged conditions (Table 16, symbol C); format: in vivo, oval-leafed pondweed (Monochoria vaginalis); details: 320 g/ha applied herbicide
Procedure, shortened: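 Submerged Wagner pots (alluvial soil, 4 cm water) sown with weed seeds and planted with 2.5-leaf rice seedlings; emulsifiable concentrate diluted in water applied to water surface on sowing day. Held in greenhouse at 25-30 °C; injury scored 0-5 by herbicidal rate after three weeks.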

wild oat = assay: Test Example 4: herbicidal effect by soil treatment (Table 19, symbol I); format: in vivo, wild oat (Avena fatua); details: amount of applied herbicide 320 g/ha
Procedure, shortened: as §1

chickweed [2] = assay: Test Example 4: herbicidal effect by soil treatment (Table 19, symbol P); format: in vivo, common chickweed (Stellaria media); details: amount of applied herbicide 320 g/ha
Procedure, shortened: as §1

green foxtail [3] = assay: Test Example 4: herbicidal effect by soil treatment (Table 19, symbol G); format: in vivo, green foxtail (Setaria viridis); details: amount of applied herbicide 320 g/ha
Procedure, shortened: as §1

barnyard grass = assay: Test Example 5: herbicidal effect by foliage application, plastic box (Table 20, symbol H); format: in vivo, barnyard grass (Echinochloa crus-galli); details: foliage application, three weeks after application; for herbicidal effect grade, H: barnyard grass: 320 g/ha
Procedure, shortened: (§2)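 Sow seeds spot-wise in sterilized diluvial soil; cover with ~1.5 cm soil. Grow 14 days in greenhouse, 25° C. to 30° C. Spray foliage with emulsion diluted to predetermined amount. Rate effect after 3 weeks.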

Italian ryegrass = assay: Test Example 4: herbicidal effect by soil treatment (Table 19, symbol K); format: in vivo, Italian ryegrass (Lolium multiflorum); details: amount of applied herbicide 320 g/ha
Procedure, shortened: as §1

redroot pigweed [4] = assay: Test Example 4: herbicidal effect by soil treatment (Table 19, symbol N); format: in vivo, redroot pigweed (Amaranthus retroflexus); details: amount of applied herbicide 320 g/ha
Procedure, shortened: as §1

oval-leafed pondweed [5] = assay: Test Example 2: herbicidal activity, application during weed generation under submerged conditions (Table 17, symbol C); format: in vivo, oval-leafed pondweed (Monochoria vaginalis); details: AAH 320 g/ha; application during weed generation, submerged conditions
Procedure, shortened: (§3)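 Effect on each weed is rated three weeks post-treatment, using the same scoring criteria as the preceding test. Plants grow from mixed-sown seed in flooded alluvial soil (4 cm water) at 25° C. to 30° C., and are treated at one to two leaves with diluted emulsion dropped onto the water.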

green foxtail [6] = assay: Test Example 5: herbicidal effect by foliage application, plastic box (Table 20, symbol G); format: in vivo, green foxtail (Setaria viridis); details: foliage application, three weeks after application; for herbicidal effect grade, G: green foxtail: 320 g/ha
Procedure, shortened: as §2

late watergrass = assay: Test Example 2: herbicidal activity, application during weed generation under submerged conditions (Table 17, symbol A); format: in vivo, late watergrass (Echinochloa oryzicola); details: AAH 320 g/ha; application during weed generation, submerged conditions
Procedure, shortened: as §3

chickweed [7] = assay: Test Example 5: herbicidal effect by foliage application, plastic box (Table 20, symbol P); format: in vivo, common chickweed (Stellaria media); details: foliage application, three weeks after application; for herbicidal effect grade, P: chickweed: 320 g/ha
Procedure, shortened: as §2

redroot pigweed [8] = assay: Test Example 5: herbicidal effect by foliage application, plastic box (Table 20, symbol N); format: in vivo, redroot pigweed (Amaranthus retroflexus); details: foliage application, three weeks after application; for herbicidal effect grade, N: redroot pigweed: 320 g/ha
Procedure, shortened: as §2

rice flat sedge = assay: Test Example 3: herbicidal effect by foliage application, Wagner pot (Table 18, symbol E); format: in vivo, rice flat sedge (Cyperus iria); details: 320 g/ha
Procedure, shortened: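 Plants were sown in alluvial soil held under 0.1–0.5 cm standing water and grown 14 days in a greenhouse at 25–30 °C. An emulsifiable formulation, water-diluted to the set dose, was then sprayed onto the foliage, and effects were scored three weeks later using previously defined criteria.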

blackgrass [9] = assay: Test Example 5: herbicidal effect by foliage application, plastic box (Table 20, symbol J); format: in vivo, blackgrass (Alopecurus myosuroides); details: foliage application, three weeks after application; for herbicidal effect grade, J: blackgrass: 320 g/ha
Procedure, shortened: as §2

blackgrass [10] = assay: Test Example 4: herbicidal effect by soil treatment (Table 19, symbol J); format: in vivo, blackgrass (Alopecurus myosuroides); details: amount of applied herbicide 320 g/ha
Procedure, shortened: as §1

Row | Structure (SMILES) | herbicidal effect rating, R: persian speedwell (persian speedwell) | Herbicidal effect on C: oval-leafed pondweed (grade 0-5) (oval-leafed pondweed [1]) | herbicidal effect rating, I: wild oat (wild oat) | herbicidal effect rating, P: chickweed (chickweed [2]) | herbicidal effect rating, G: green foxtail (green foxtail [3]) | herbicidal effect grade, H: barnyard grass (barnyard grass) | herbicidal effect rating, K: Italian ryegrass (Italian ryegrass) | herbicidal effect rating, N: redroot pigweed (redroot pigweed [4]) | herbicidal effect rating, C: oval-leafed pondweed (oval-leafed pondweed [5]) | herbicidal effect grade, G: green foxtail (green foxtail [6]) | herbicidal effect rating, A: late watergrass (late watergrass) | herbicidal effect grade, P: chickweed (chickweed [7]) | herbicidal effect grade, N: redroot pigweed (redroot pigweed [8]) | herbicidal effect on E (rice flat sedge), rating 0-5 (rice flat sedge) | herbicidal effect grade, J: blackgrass (blackgrass [9]) | herbicidal effect rating, J: blackgrass (blackgrass [10]) | other results
1 | CCCC(=O)Oc1c(C)nn(C)c(=O)c1-c1c(-c2ccc(SC)cc2)sc2ccccc12 [1-037] | 3 (Herbicidal rate of 40% or more and less than 70%) | 3 (Herbicidal rate of 40% or more and less than 70%) | 0 (Herbicidal rate of 5% or less (almost no effect)) | 4 (Herbicidal rate of 70% or more and less than 90%) | 5 (Herbicidal rate of 90% or more (almost completely withered)) | 4 (Herbicidal rate of 70% or more and less than 90%) | 1 (Herbicidal rate of 5% or more and less than 20%) | 5 (Herbicidal rate of 90% or more (almost completely withered)) | 3 (Herbicidal rate of 40% or more and less than 70%) | 5 (Herbicidal rate of 90% or more (almost completely withered)) | 0 (Herbicidal rate of 5% or less (almost no effect)) | 5 (Herbicidal rate of 90% or more (almost completely withered)) | 5 (Herbicidal rate of 90% or more (almost completely withered)) | 5 (Herbicidal rate of 90% or more (almost completely withered)) | 4 (Herbicidal rate of 70% or more and less than 90%) | 0 (Herbicidal rate of 5% or less (almost no effect)) | 
2 | COc1ccc(-c2sc3ccccc3c2-c2c(O)c(C)nn(C)c2=O)cc1OC [1-072] | 5 (Herbicidal rate of 90% or more (almost completely withered)) | 0 (Herbicidal rate of 5% or less (almost no effect)) | 2 (Herbicidal rate of 20% or more and less than 40%) | 4 (Herbicidal rate of 70% or more and less than 90%) | 5 (Herbicidal rate of 90% or more (almost completely withered)) | 5 (Herbicidal rate of 90% or more (almost completely withered)) | 5 (Herbicidal rate of 90% or more (almost completely withered)) | 5 (Herbicidal rate of 90% or more (almost completely withered)) | 5 (Herbicidal rate of 90% or more (almost completely withered)) | 5 (Herbicidal rate of 90% or more (almost completely withered)) | 2 (Herbicidal rate of 20% or more and less than 40%) | 5 (Herbicidal rate of 90% or more (almost completely withered)) | 5 (Herbicidal rate of 90% or more (almost completely withered)) | 5 (Herbicidal rate of 90% or more (almost completely withered)) | 3 (Herbicidal rate of 40% or more and less than 70%) | 0 (Herbicidal rate of 5% or less (almost no effect)) | 
3 | Cc1nn(C)c(=O)c(-c2c(-c3ccc4c(c3)OCO4)sc3ccccc23)c1O [1-087] | 5 (Herbicidal rate of 90% or more (almost completely withered)) | 0 (Herbicidal rate of 5% or less (almost no effect)) | 0 (Herbicidal rate of 5% or less (almost no effect)) | 5 (Herbicidal rate of 90% or more (almost completely withered)) | 5 (Herbicidal rate of 90% or more (almost completely withered)) | 4 (Herbicidal rate of 70% or more and less than 90%) | 3 (Herbicidal rate of 40% or more and less than 70%) | 5 (Herbicidal rate of 90% or more (almost completely withered)) | 3 (Herbicidal rate of 40% or more and less than 70%) | 5 (Herbicidal rate of 90% or more (almost completely withered)) | 2 (Herbicidal rate of 20% or more and less than 40%) | 5 (Herbicidal rate of 90% or more (almost completely withered)) | 5 (Herbicidal rate of 90% or more (almost completely withered)) | 5 (Herbicidal rate of 90% or more (almost completely withered)) | 3 (Herbicidal rate of 40% or more and less than 70%) | 0 (Herbicidal rate of 5% or less (almost no effect)) | 
4 | C=CCOc1ccccc1-c1sc2ccccc2c1-c1c(O)c(C)nn(C)c1=O [1-110] | 3 (Herbicidal rate of 40% or more and less than 70%) | 4 (Herbicidal rate of 70% or more and less than 90%) | 1 (Herbicidal rate of 5% or more and less than 20%) | 3 (Herbicidal rate of 40% or more and less than 70%) | 3 (Herbicidal rate of 40% or more and less than 70%) |  | 2 (Herbicidal rate of 20% or more and less than 40%) | 0 (Herbicidal rate of 5% or less (almost no effect)) | 0 (Herbicidal rate of 5% or less (almost no effect)) |  | 3 (Herbicidal rate of 40% or more and less than 70%) |  |  | 4 (Herbicidal rate of 70% or more and less than 90%) |  | 2 (Herbicidal rate of 20% or more and less than 40%) | H: barnyard grass, herbicidal effect (barnyard grass; AAH 320 g/ha): 3 (Herbicidal rate of 40% or more and less than 70%); G: green foxtail, herbicidal effect (green foxtail [6]; AAH 320 g/ha): 4 (Herbicidal rate of 70% or more and less than 90%); P: chickweed, herbicidal effect (chickweed [7]; AAH 320 g/ha): 5 (Herbicidal rate of 90% or more (almost completely withered)); N: redroot pigweed, herbicidal effect (redroot pigweed [8]; AAH 320 g/ha): 0 (Herbicidal rate of 5% or less (almost no effect)); J: blackgrass, herbicidal effect (blackgrass [9]; AAH 320 g/ha): 4 (Herbicidal rate of 70% or more and less than 90%)
